Key:
Type in all cases: biochemical
Savinase Ultra 16.0L = target: T1, Savinase Ultra 16.0L (Lederbergia lenta, UniProt P29600); test: protease storage stability in liquid formulation (Suc-AAPF-pNA substrate); settings: storage at 37° C.
T1 construct: purchased Sigma-Aldrich
T1 sequence (P29600 1-269): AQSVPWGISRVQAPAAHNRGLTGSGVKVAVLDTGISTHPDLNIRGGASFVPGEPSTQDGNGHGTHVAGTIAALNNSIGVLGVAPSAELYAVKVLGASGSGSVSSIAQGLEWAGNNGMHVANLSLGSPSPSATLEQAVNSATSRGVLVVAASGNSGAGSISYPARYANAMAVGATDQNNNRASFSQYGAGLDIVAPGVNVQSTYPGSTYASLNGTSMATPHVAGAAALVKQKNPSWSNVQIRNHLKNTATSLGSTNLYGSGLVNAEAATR
Summary of the method: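 Savinase in liquid base formulations containing test salt, comparative compound or diethylene glycol; amounts given as active protein. Residual activity at set storage times measured with Suc-AAPF-pNA via pNA release at OD405, 20 °C. Activity expressed relative to reference formulation at time 0.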

Amy2=Amplify = test: amylase storage stability in liquid formulation (pNP release from Ethyliden-blocked-pNPG7); design: key: % of activity in reference formulation at time 0; settings: storage at 37° C.
Summary of the method: (§1)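 Amylase (dosed as active protein) was stored at 37 °C in liquid base formulations with or without test or comparative compounds. Activity at set time points was measured as pNP release (A405) from blocked-pNPG7 with excess α-glucosidase, expressed relative to the reference formulation at time 0.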

Amy1=Stainzyme = test: as above; design: key: % of activity in reference formulation at time 0; settings: storage at 37° C.
Summary of the method: as §1

[1] = system: Amy3=Stainzyme Plus L (12L); test: as above; settings: base formulation II., 1.5 wt % component (a), storage at 37° C.
Experimental: The storage stability of amylase was assessed at 37° C.
Base test formulations were manufactured by making base formulations I to V by mixing the components according to Table 1.
Amylases used: Amy1=Stainzyme, Amy2=Amplify, Amy3=Stainzyme Plus L (12L)
The respective component (a) or comparative compound was added, if applicable, to the respective base formulation in amounts as indicated in Table 1.
The amount of amylase as provided in Table 1 refers to active protein.
Water was added to accomplish the balance to 100.
Amylase activity at certain points in time as indicated in Table 2 was measured quantitatively by the release of the chromophore para-nitrophenol (pNP) from the substrate (Ethyliden-blocked-pNPG7, Roche Applied Science 10880078103). The alpha-amylase degrades the substrate into smaller molecules and α-glucosidase (Roche Applied Science 11626329103), which is present in excess compared to the amylase, process these smaller products until pNP is released; the release of pNP, measured via an increase of absorption at 405 nm, is directly proportional to the amylase activity of the sample. Amylase standard: Termamyl 120 L (Sigma 3403).
The amylolytic activity values provided were calculated referring to the value determined in the reference formulation at the time 0.
The nomenclature of formulations is as follows: the Roman number before the full stop characterizes the base formulation, the Arabian number the type of compound (A.# compound according to invention (component (a)); B.# comparative compound).

[2] = base formulation I., 1.5 wt % component (a), 3 d
[3] = base formulation I., 1.5 wt % component (a), 7 d
[4] = base formulation I., 1.5 wt % component (a), 14 d
[5] = base formulation I., 1.5 wt % component (a), 21 d
[6] = base formulation I., 1.5 wt % component (a), 28 d
[7] = base formulation I., 1.5 wt % component (a), 42 d
[8] = base formulation I., 1.5 wt % component (a), T0
[9] = base formulation III., 1.5 wt % component (a), 3 d
[10] = base formulation III., 1.5 wt % component (a), 7 d
[11] = base formulation III., 1.5 wt % component (a), 14 d
[12] = base formulation III., 1.5 wt % component (a), 21 d
[13] = base formulation III., 1.5 wt % component (a), 28 d
[14] = base formulation III., 1.5 wt % component (a), 42 d
[15] = base formulation III., 1.5 wt % component (a), T0
[16] = base formulation IV., 2.0 wt % component (a), 3 d
[17] = base formulation IV., 2.0 wt % component (a), 7 d
[18] = base formulation IV., 2.0 wt % component (a), 14 d
[19] = base formulation IV., 2.0 wt % component (a), 21 d
[20] = base formulation IV., 2.0 wt % component (a), 28 d
[21] = base formulation IV., 2.0 wt % component (a), 42 d
[22] = base formulation IV., 2.0 wt % component (a), T0
[23] = base formulation V., 2.0 wt % component (a), 3 d
[24] = base formulation V., 2.0 wt % component (a), 7 d
[25] = base formulation V., 2.0 wt % component (a), 14 d
[26] = base formulation V., 2.0 wt % component (a), 21 d
[27] = base formulation V., 2.0 wt % component (a), 28 d
[28] = base formulation V., 2.0 wt % component (a), 42 d
[29] = base formulation V., 2.0 wt % component (a), T0

CCOC(=O)CC(O)(CC(=O)OCC)C(=O)OCC [A.1, Triethylcitrate]
protease activity, referring to reference formulation at time 0 (Savinase Ultra 16.0L; [2]): 97 | protease activity, referring to reference formulation at time 0 (Savinase Ultra 16.0L; [3]): 94 | protease activity, referring to reference formulation at time 0 (Savinase Ultra 16.0L; [4]): 89 | protease activity, referring to reference formulation at time 0 (Savinase Ultra 16.0L; [5]): 83 | protease activity, referring to reference formulation at time 0 (Savinase Ultra 16.0L; [6]): 79 | protease activity, referring to reference formulation at time 0 (Savinase Ultra 16.0L; [7]): 67 | protease activity, referring to reference formulation at time 0 (Savinase Ultra 16.0L; [8]): 100 | protease activity, referring to reference formulation at time 0 (Savinase Ultra 16.0L; base formulation II., 1.5 wt % component (a), 3 d): 99 | protease activity, referring to reference formulation at time 0 (Savinase Ultra 16.0L; base formulation II., 1.5 wt % component (a), 7 d): 96 | protease activity, referring to reference formulation at time 0 (Savinase Ultra 16.0L; base formulation II., 1.5 wt % component (a), 14 d): 90 | protease activity, referring to reference formulation at time 0 (Savinase Ultra 16.0L; base formulation II., 1.5 wt % component (a), 21 d): 85 | protease activity, referring to reference formulation at time 0 (Savinase Ultra 16.0L; base formulation II., 1.5 wt % component (a), 28 d): 80 | protease activity, referring to reference formulation at time 0 (Savinase Ultra 16.0L; base formulation II., 1.5 wt % component (a), 42 d): 69 | protease activity, referring to reference formulation at time 0 (Savinase Ultra 16.0L; base formulation II., 1.5 wt % component (a), T0): 100 | protease activity, referring to reference formulation at time 0 (Savinase Ultra 16.0L; [9]): 99 | protease activity, referring to reference formulation at time 0 (Savinase Ultra 16.0L; [10]): 93 | protease activity, referring to reference formulation at time 0 (Savinase Ultra 16.0L; [11]): 88 | protease activity, referring to reference formulation at time 0 (Savinase Ultra 16.0L; [12]): 85 | protease activity, referring to reference formulation at time 0 (Savinase Ultra 16.0L; [13]): 74 | protease activity, referring to reference formulation at time 0 (Savinase Ultra 16.0L; [14]): 67 | protease activity, referring to reference formulation at time 0 (Savinase Ultra 16.0L; [15]): 100 | protease activity, referring to reference formulation at time 0 (Savinase Ultra 16.0L; [16]): 96 | protease activity, referring to reference formulation at time 0 (Savinase Ultra 16.0L; [17]): 92 | protease activity, referring to reference formulation at time 0 (Savinase Ultra 16.0L; [18]): 86 | protease activity, referring to reference formulation at time 0 (Savinase Ultra 16.0L; [19]): 80 | protease activity, referring to reference formulation at time 0 (Savinase Ultra 16.0L; [20]): 72 | protease activity, referring to reference formulation at time 0 (Savinase Ultra 16.0L; [21]): 65 | protease activity, referring to reference formulation at time 0 (Savinase Ultra 16.0L; [22]): 98 | protease activity, referring to reference formulation at time 0 (Savinase Ultra 16.0L; [23]): 94 | protease activity, referring to reference formulation at time 0 (Savinase Ultra 16.0L; [24]): 90 | protease activity, referring to reference formulation at time 0 (Savinase Ultra 16.0L; [25]): 85 | protease activity, referring to reference formulation at time 0 (Savinase Ultra 16.0L; [26]): 81 | protease activity, referring to reference formulation at time 0 (Savinase Ultra 16.0L; [27]): 75 | protease activity, referring to reference formulation at time 0 (Savinase Ultra 16.0L; [28]): 65 | protease activity, referring to reference formulation at time 0 (Savinase Ultra 16.0L; [29]): 99 | amylase activity, referring to reference formulation at time 0 (Amy2=Amplify; [9]): 98 | amylase activity, referring to reference formulation at time 0 (Amy2=Amplify; [10]): 95 | amylase activity, referring to reference formulation at time 0 (Amy2=Amplify; [11]): 91 | amylase activity, referring to reference formulation at time 0 (Amy2=Amplify; [12]): 86 | amylase activity, referring to reference formulation at time 0 (Amy2=Amplify; [13]): 78 | amylase activity, referring to reference formulation at time 0 (Amy2=Amplify; [14]): 68 | amylase activity, referring to reference formulation at time 0 (Amy2=Amplify; [15]): 100 | amylase activity, referring to reference formulation at time 0 (Amy2=Amplify; [23]): 96 | amylase activity, referring to reference formulation at time 0 (Amy2=Amplify; [24]): 91 | amylase activity, referring to reference formulation at time 0 (Amy2=Amplify; [25]): 87 | amylase activity, referring to reference formulation at time 0 (Amy2=Amplify; [26]): 80 | amylase activity, referring to reference formulation at time 0 (Amy2=Amplify; [27]): 73 | amylase activity, referring to reference formulation at time 0 (Amy2=Amplify; [28]): 62 | amylase activity, referring to reference formulation at time 0 (Amy2=Amplify; [29]): 98 | amylase activity, referring to reference formulation at time 0 (Amy1=Stainzyme; [2]): 98 | amylase activity, referring to reference formulation at time 0 (Amy1=Stainzyme; [3]): 93 | amylase activity, referring to reference formulation at time 0 (Amy1=Stainzyme; [4]): 88 | amylase activity, referring to reference formulation at time 0 (Amy1=Stainzyme; [5]): 80 | amylase activity, referring to reference formulation at time 0 (Amy1=Stainzyme; [6]): 74 | amylase activity, referring to reference formulation at time 0 (Amy1=Stainzyme; [7]): 61 | amylase activity, referring to reference formulation at time 0 (Amy1=Stainzyme; [8]): 100 | amylase activity, referring to reference formulation at time 0 (Amy1=Stainzyme; [16]): 96 | amylase activity, referring to reference formulation at time 0 (Amy1=Stainzyme; [17]): 92 | amylase activity, referring to reference formulation at time 0 (Amy1=Stainzyme; [18]): 88 | amylase activity, referring to reference formulation at time 0 (Amy1=Stainzyme; [19]): 83 | amylase activity, referring to reference formulation at time 0 (Amy1=Stainzyme; [20]): 73 | amylase activity, referring to reference formulation at time 0 (Amy1=Stainzyme; [21]): 61 | amylase activity, referring to reference formulation at time 0 (Amy1=Stainzyme; [22]): 98 | amylase activity, referring to reference formulation at time 0 ([1]; 3 d): 100 | amylase activity, referring to reference formulation at time 0 ([1]; 7 d): 94 | amylase activity, referring to reference formulation at time 0 ([1]; 14 d): 90 | amylase activity, referring to reference formulation at time 0 ([1]; 21 d): 84 | amylase activity, referring to reference formulation at time 0 ([1]; 28 d): 77 | amylase activity, referring to reference formulation at time 0 ([1]; 42 d): 65 | amylase activity, referring to reference formulation at time 0 ([1]; T0): 100
